Where two headings read alike, the source gives them in different places. Blank lines part the entries; values can stand above or below the compound they belong to.
Columns and labels:
Csm6-2 (ApCsm6-2) = biological target: T1, Csm6-2 (ApCsm6-2) (Actinomyces procaprae, UniProt Z9IBH4OPS2); assay: SPR (Biacore 8K, CM5 chip, amine-coupled Csm6-2); assay type: binding
T1 construct: full length, tandem CARF1-HEPN1 (1-400) and CARF2-HEPN2 (401-797); N-terminal His6 tag, pET-28a, E. coli Rosetta (DE3), codon-optimised; homotetramer
T1 sequence (Z9IBH4OPS2 1-797): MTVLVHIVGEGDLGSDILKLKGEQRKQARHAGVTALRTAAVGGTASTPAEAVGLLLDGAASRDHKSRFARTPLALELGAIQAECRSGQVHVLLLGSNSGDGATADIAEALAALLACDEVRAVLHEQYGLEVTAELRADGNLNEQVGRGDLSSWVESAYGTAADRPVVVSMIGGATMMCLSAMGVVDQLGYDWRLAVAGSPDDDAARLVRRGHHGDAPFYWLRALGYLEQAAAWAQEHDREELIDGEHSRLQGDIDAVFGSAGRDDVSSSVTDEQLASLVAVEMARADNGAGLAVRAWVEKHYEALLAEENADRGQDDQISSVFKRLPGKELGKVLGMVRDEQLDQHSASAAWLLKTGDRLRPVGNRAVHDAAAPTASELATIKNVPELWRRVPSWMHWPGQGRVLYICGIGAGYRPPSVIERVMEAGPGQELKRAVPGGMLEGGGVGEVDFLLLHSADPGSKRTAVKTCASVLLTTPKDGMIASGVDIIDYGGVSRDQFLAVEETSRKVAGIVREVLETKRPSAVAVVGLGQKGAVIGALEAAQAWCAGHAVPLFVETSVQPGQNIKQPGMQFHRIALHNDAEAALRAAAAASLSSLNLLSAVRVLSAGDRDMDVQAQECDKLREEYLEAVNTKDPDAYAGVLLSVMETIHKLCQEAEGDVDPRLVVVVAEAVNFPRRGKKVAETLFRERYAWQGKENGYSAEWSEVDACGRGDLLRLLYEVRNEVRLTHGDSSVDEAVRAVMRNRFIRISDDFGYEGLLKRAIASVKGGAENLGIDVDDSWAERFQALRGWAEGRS

[1] = biological target: Csm6-2 L473E/L474E mutant (Actinomyces procaprae); assay: SEC; size-exclusion chromatography profiles of WT and L473E/L474E mutant proteins

- Kd (Csm6-2 (ApCsm6-2); PBST (0.5% Tween-20) running buffer, allosteric activator, CARF domain pocket): 1.41 nM
Compound: Nc1ncnc2c1ncn2[C@@H]1O[C@@H]2COP(=O)(O)O[C@H]3[C@@H](O)[C@H](n4cnc5c(N)ncnc54)O[C@@H]3COP(=O)(O)O[C@H]3[C@@H](O)[C@H](n4cnc5c(N)ncnc54)O[C@@H]3COP(=O)(O)O[C@H]3[C@@H](O)[C@H](n4cnc5c(N)ncnc54)O[C@@H]3COP(=O)(O)O[C@H]3[C@@H](O)[C@H](n4cnc5c(N)ncnc54)O[C@@H]3COP(=O)(O)O[C@H]2[C@H]1O [cA5]

- Kd (Csm6-2 (ApCsm6-2)): 3.72 nM
Compound: Nc1ncnc2c1ncn2[C@@H]1O[C@@H]2COP(=O)(O)O[C@H]3[C@@H](O)[C@H](n4cnc5c(N)ncnc54)O[C@@H]3COP(=O)(O)O[C@H]3[C@@H](O)[C@H](n4cnc5c(N)ncnc54)O[C@@H]3COP(=O)(O)O[C@H]3[C@@H](O)[C@H](n4cnc5c(N)ncnc54)O[C@@H]3COP(=O)(O)O[C@H]3[C@@H](O)[C@H](n4cnc5c(N)ncnc54)O[C@@H]3COP(=O)(O)O[C@H]3[C@@H](O)[C@H](n4cnc5c(N)ncnc54)O[C@@H]3COP(=O)(O)O[C@H]2[C@H]1O [cA6]

- stoichiometry N [1]: 2
Compound: Csm6-2 L473E/L474E mutant (enzyme)
